Assay [1] can be described thus: viability of uninfected HEp-2 cells – cell-based, HTS, cytotoxicity control for RSV inhibitor project, dose response (AID 2410). It counts as functional. The note with it: human respiratory syncytial virus.
The target of assay [2] is T1, Replicative DNA helicase DnaB (Mycobacterium tuberculosis, UniProt P9WMR3).
T1 sequence (P9WMR3 whole entry): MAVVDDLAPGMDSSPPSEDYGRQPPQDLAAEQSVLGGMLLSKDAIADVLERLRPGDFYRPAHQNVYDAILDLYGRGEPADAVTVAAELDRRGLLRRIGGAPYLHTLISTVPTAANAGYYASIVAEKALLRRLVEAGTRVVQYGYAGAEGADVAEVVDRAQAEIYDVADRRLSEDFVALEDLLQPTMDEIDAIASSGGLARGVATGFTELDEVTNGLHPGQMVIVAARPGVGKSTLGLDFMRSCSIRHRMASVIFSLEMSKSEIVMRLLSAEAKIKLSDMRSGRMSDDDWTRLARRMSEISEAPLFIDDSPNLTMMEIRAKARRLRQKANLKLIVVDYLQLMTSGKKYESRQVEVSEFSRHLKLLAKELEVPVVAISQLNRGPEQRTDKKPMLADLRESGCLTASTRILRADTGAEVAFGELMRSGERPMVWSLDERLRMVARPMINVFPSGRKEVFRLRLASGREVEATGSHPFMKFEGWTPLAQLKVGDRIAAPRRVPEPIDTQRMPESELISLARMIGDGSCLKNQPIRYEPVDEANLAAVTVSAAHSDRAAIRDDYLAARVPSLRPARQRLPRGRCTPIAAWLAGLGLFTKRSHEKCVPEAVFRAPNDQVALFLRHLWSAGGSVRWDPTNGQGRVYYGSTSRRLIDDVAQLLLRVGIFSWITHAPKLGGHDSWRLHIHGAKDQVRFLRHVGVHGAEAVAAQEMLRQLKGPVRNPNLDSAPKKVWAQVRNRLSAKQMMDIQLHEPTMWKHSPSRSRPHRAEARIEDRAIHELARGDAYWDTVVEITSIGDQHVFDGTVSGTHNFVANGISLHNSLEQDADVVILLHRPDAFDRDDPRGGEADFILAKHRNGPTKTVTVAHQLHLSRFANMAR
Kind of assay: DnaB intein splicing inhibitors, dose response, biochemical, cell-free fluorescence (AID 449749). It counts as functional.

For assay [3], the target named is T2, Protein RecA (Mycobacterium tuberculosis, UniProt P9WHJ3).
T2 sequence (P9WHJ3 whole entry): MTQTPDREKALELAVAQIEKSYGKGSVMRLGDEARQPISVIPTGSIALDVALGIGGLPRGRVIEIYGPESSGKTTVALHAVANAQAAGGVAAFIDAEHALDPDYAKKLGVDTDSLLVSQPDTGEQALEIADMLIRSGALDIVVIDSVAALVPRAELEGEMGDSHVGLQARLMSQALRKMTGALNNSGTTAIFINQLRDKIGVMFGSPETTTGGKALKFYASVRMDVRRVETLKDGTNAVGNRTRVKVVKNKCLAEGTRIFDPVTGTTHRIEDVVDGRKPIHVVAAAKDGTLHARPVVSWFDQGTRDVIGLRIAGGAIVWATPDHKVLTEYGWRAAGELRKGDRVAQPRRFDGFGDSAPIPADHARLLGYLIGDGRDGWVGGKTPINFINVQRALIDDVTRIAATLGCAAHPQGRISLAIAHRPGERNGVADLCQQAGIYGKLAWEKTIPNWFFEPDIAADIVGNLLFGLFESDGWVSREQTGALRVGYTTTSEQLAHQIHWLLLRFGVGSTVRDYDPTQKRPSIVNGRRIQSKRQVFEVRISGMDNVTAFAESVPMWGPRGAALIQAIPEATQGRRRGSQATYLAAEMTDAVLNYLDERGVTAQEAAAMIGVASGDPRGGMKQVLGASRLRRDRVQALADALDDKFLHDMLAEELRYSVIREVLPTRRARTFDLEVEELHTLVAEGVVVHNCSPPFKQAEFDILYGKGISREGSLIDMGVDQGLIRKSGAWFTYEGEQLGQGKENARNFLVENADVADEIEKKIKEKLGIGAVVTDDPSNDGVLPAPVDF
Description: Fluorescence Cell-Free Homogeneous Dose Retest to Identify Inhibitors of RecA-Intein Splicing Activity. [Related pubchem assays (depositor defined):AID2097, AID2223, AID489010, AID492950]. It counts as functional.

Assay [4] has as its target T3, Cytochrome P450 1A2 (Homo sapiens, UniProt P05177).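 Further: PubChem cytochrome P450 panel assay, CYP1A2 panel member.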
T3 sequence (P05177 whole entry): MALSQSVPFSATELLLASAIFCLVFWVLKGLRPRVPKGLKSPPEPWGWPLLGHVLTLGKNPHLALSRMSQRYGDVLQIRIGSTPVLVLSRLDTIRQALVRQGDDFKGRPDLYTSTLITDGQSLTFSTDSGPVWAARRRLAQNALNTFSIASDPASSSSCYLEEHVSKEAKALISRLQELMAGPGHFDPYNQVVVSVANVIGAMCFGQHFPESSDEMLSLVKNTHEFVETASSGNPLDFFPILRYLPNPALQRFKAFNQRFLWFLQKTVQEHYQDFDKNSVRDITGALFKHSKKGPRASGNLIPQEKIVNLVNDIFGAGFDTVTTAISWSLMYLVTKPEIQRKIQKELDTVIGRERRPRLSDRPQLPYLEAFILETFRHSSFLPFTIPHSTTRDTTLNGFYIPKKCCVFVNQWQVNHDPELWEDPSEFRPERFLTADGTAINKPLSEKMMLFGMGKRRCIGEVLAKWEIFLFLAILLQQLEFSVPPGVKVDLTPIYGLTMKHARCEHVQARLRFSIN

The nature of assay [5]: Trypanosoma cruzi growth suppression in host cells – NIH3T3 host cells, beta-gal luminescence, confirmation (AID 2044).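 Further: intracellular parasites grown in NIH/3T3 mouse fibroblasts as host cells; luminescent beta-galactosidase reporter signal from transgenic T. cruzi replicating inside host cells; inhibitors lower the luminescence signal.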 In kind it is functional, cell-based.
Assay [6] has as its target T4, Heat shock factor protein 1 (Mus musculus, UniProt P38532).
T4 sequence (P38532 whole entry): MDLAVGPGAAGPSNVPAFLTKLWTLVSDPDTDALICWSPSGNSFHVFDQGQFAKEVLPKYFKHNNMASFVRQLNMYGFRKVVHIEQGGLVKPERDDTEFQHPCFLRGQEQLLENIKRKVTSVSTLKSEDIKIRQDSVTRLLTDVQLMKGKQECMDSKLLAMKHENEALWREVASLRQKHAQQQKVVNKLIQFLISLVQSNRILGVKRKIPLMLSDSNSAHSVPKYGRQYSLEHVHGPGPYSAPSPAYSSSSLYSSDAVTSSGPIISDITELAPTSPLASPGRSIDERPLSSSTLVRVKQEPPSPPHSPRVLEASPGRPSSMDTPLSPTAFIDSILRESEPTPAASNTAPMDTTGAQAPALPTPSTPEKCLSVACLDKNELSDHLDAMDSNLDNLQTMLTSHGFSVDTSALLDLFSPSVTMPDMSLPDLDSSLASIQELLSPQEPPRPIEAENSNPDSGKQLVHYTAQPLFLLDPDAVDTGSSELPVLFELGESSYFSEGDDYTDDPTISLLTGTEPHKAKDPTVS
Kind of assay: enhancement of HSF1-driven luciferase signal – cell-based, NIH3T3, luminescence, dose retest, confirmation (AID 435004).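 Further: stress induced by proteasome inhibitor MG132 added 30 min after compound; luciferase reporter driven by HSF1 response element in NIH3T3 cells; actives raise luminescence as potentiators of the MG132 stress response.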 It counts as functional.

A short description of assay [7]: NIH3T3 cell viability loss – ATP luminescence, mouse fibroblasts, counter-screen, dose response (AID 2010).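 Further: cells exposed to compound for about 90 hours before reading.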 In kind it is functional, cell-based. On the technique in general: A counterscreen serves to expose hits that act by an unwanted route or on another target.
Assay [8] concerns the target Cytochrome P450 2C9 (Homo sapiens, UniProt P11712).

As usually defined, the CC50 is the concentration that lowers cell viability or growth by half. By AC50 is commonly meant the midpoint of the concentration-response curve, whichever way the signal moves. The term EC50 denotes the concentration needed to bring the measured effect to its halfway point.

The source made the active and inactive calls.

Sequence of Cytochrome P450 2C9 (P11712 whole entry): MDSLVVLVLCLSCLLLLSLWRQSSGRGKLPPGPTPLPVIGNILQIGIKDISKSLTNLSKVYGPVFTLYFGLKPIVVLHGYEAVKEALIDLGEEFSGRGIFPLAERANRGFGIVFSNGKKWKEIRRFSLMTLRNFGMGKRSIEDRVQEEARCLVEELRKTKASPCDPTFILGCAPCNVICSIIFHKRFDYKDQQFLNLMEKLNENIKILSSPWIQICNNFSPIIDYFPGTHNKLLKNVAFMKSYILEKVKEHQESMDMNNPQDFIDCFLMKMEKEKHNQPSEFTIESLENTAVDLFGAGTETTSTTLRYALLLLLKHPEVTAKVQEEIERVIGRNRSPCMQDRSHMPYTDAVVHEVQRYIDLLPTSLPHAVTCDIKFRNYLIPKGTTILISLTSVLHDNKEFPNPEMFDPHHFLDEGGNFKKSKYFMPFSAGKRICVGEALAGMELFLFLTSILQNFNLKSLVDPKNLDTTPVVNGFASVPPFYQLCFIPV

On to `COc1ccc(C)cc1Nc1nc(N)c2ccccc2n1`, for which, in assay [1], the CC50 was > 50 µM (active).
On to `COc1ccc(-c2cc(OC)c3ccccc3n2)cc1`, for which the CC50 in assay [1] was > 50 µM (active).
`C=CCc1cccc(/C=N/c2cnc(O)nc2O)c1O`: the AC50 in assay [2] was > 380 µM (inactive). In addition, the EC50 in assay [3] is > 380 µM (inconclusive).
Turning to `c1ccc(SC(Sc2ccccc2)c2ccc3c(c2)OCO3)cc1`, the AC50 in assay [4] was 0.501 µM (inconclusive).
As to `CC1=NNC(=O)C1Cc1ccccc1` (configuration not stated), the AC50 in assay [2] was 0.651 µM (active). Besides, in assay [3], the EC50 was 0.294 µM (active).
With `CCC(C)Oc1ccc(/C=C/c2nc(O)nc(O)c2[N+](=O)[O-])cc1OC` (configuration not stated), in assay [1], the CC50 was 12.9 µM (active).
In the case of `CC1(C)SC(=S)N(NC(=O)Nc2ccccc2)C1N(O)C(=O)Nc1ccccc1` (configuration not stated), the AC50 in assay [4] is 28.2 µM (inconclusive).
Regarding `COc1ccccc1Nc1ncc(-c2cccs2)s1`, the CC50 in assay [1] was 43 µM (active).
`Cc1ccccc1OC[C@H](O)CO`: in assay [4], the concentration at half-maximal activity (AC50) was 15.8 µM (inconclusive).
The same measure, in the same setting: the value for `CN(C)c1ncc2nc(-c3ccccc3)c(=O)n(Cc3ccc(F)cc3)c2n1` was 12.6 µM (inconclusive).
Regarding `NS(=O)(=O)c1cccc(NC(=O)COC(=O)c2cc(-c3ccc(Cl)cc3)nc3ccccc23)c1`, the CC50 in assay [1] was 18.5 µM (active).
Take `CN1C(=O)C(Cc2ccc3c(c2)OCO3)C(=O)N(C)C1=O`: in assay [2], the AC50 was 35.3 µM (active). Also, the EC50 in assay [3] was 10 µM (active).
For the compound `CN(C)/C=N/c1nc(-c2ccc3ccccc3c2)cs1`, the CC50 in assay [1] was 22.8 µM (active).
Turning to `COc1ccc(C(=O)NC(=S)N2CCCCC2c2cccnc2)cc1OC` (configuration not stated), the EC50 was 1.32 µM (active) in assay [5], > 260 µM (inactive) in assay [6] and > 60 µM (not active) in assay [7].
As for `COC(=O)Cc1c(C)nc2nc(NCc3ccccc3OC)nn2c1O`, the AC50 in assay [8] is 22.4 µM (inconclusive).
On to `CNc1cc([N+](=O)[O-])ccc1OCc1ccccc1`, for which the CC50 in assay [1] was 18.7 µM (active).
Take `CCN(CC(=O)NC(C)C)Cc1nc(O)c2c3c(sc2n1)CCC3`: the EC50 in assay [6] was > 260 µM (inactive).
In the case of `Cc1oc(-c2ccccc2Cl)nc1CSCC(=O)NC1CC1`, the AC50 in assay [8] is 20 µM (inconclusive).
As for `CN(C)CCn1c(C(=O)O)cc2ccccc21`, in assay [4], the AC50 is 0.0158 µM (inconclusive).
As for `O=C(NC(=C(Cl)Cl)S(=O)(=O)c1ccc(Cl)cc1)c1ccccc1`, the AC50 in assay [2] is > 380 µM (inactive). The EC50 in assay [3] was 1.53 µM (active).
As to `COc1cc(/C=C(/C#N)C(=O)c2c(C)[nH]c3ccccc23)ccc1OCC#N`, in assay [6], the EC50 was > 260 µM (inactive).
Consider `CCOC(=O)[C@H](N)/C=C(\C)CP(=O)(O)O`, for which the AC50 in assay [8] is 25.1 µM (inconclusive).
Take `O=C(CSc1nnc(-c2cccs2)o1)N1CCCc2ccccc21`: the EC50 in assay [6] was > 260 µM (inactive).
On to `COC(=O)c1c(C)oc2ccc(N(C(=O)Oc3ccccc3)S(=O)(=O)c3ccccc3)cc12`, for which the EC50 in assay [6] was > 260 µM (inactive).
As to `CC(C)C(=O)N1CCN(c2c(Cl)cccc2[N+](=O)[O-])CC1`, the CC50 in assay [1] was 16.3 µM (active).
As for `COc1ccc(CN2CN(c3ccc(Cl)cc3)C(=O)N(n3cnnc3)C2)cc1`, the results for the AC50 in assay [4] and in assay [8] were 15.8 µM (inconclusive) and 39.8 µM (inconclusive), respectively.
With `CC(C)n1cc(/C=N/NC(=O)COc2cccc3cccnc23)c2ccccc21`, the EC50 in assay [6] was 75.1 µM (active).
Regarding `CCOc1cc(C(c2c(C)n[nH]c2O)c2c(C)n[nH]c2O)ccc1OS(=O)(=O)c1ccc(C)cc1`, the AC50 in assay [2] was 0.413 µM (active). Also, in assay [3], the EC50 is 0.152 µM (active).
Consider `Cc1ccc(OCC(=O)NC2=NCCS2)cc1`, for which, in assay [8], the half-maximal activity concentration (AC50) is 10 µM (inconclusive).
For `COC(=O)c1ccc2c(=O)n(CCO)c(=S)[nH]c2c1`, in assay [1], the CC50 is 25.2 µM (active).
Regarding `CCn1c(SCc2ccc(Cl)cc2Cl)nc2nc3c(cc2c1=O)CCCC3`, the AC50 in assay [8] was 5.01 µM (inconclusive).
For the compound `CNC(=S)N1CCN(c2ccccc2OC)CC1`, the AC50 in assay [8] was 14.1 µM (inconclusive).
For `FC(F)(F)c1cccc(Cn2nnnc2-c2cc(Cl)cc(Cl)c2)c1`, the EC50 in assay [6] is > 260 µM (inactive).
For `Oc1ncnc2scc(-c3ccc(Br)cc3)c12`, in assay [1], the cytotoxic concentration (CC50) was > 50 µM (active).
Consider `CCNC(=O)C(=O)NCc1ccncc1`, for which, in assay [6], the EC50 is > 260 µM (inactive).
Take `COc1ccc(/C=N/N=C(\N)c2nonc2N)cc1OC`: the CC50 in assay [1] is 30.9 µM (active).
Consider `COC(=O)[C@@]1(Cc2ccccc2)[C@H]2c3cc(C(=O)N4CCCC4)n(C)c3C[C@H]2CN1C(=O)c1ccccc1`, for which the AC50 in assay [4] was 25.1 µM (inconclusive).
With `COc1ccc(S(=O)(=O)NC2(C(F)(F)F)N=C3SCCN3C2=O)cc1` (configuration not stated), the values for the AC50 in assay [4] and in assay [8] were 31.6 µM (inconclusive) and 28.2 µM (inconclusive), respectively.
Take `COC(=O)c1ccccc1OCC(=O)N1CCN(c2ccc(Cl)cc2)CC1`: the AC50 in assay [4] and in assay [8] was 14.1 µM (inconclusive) in each case.
Turning to `COCCn1c(=O)cnc2cnc(Nc3cccc(OC)c3)nc21`, in assay [8], the AC50 was 25.1 µM (inconclusive).
Turning to `NC(=O)CSC1=N/C(=C\c2ccco2)C(=O)N1c1ccc(OC(F)F)cc1`, the EC50 in assay [6] is 13.7 µM (active).
Regarding `CC(C)C(=O)N1CCC(n2nccc2NC(=O)CCOc2ccccc2)CC1`, the EC50 in assay [6] was > 260 µM (inactive).

The values above are taken from ChEMBL document CHEMBL1201862, “PubChem BioAssay data set” (2004).
